For series [1], the system named is HepG2 cells. In words: DiI-LDL uptake assay. Type of series: cell-based. Particulars: HepG2, irrespective of dose or time. Here is the method:
HepG2 cells were cultured in 24-well plates and incubated in DMEM supplemented with 2% LPDS and 20 µg/mL DiI-LDL (20614ES76, YEASEN, Shanghai, China) for four h at 37 °C in the dark. Subsequently, the cells were rinsed twice with PBS containing 0.4% albumin and then washed three times with PBS. To quantify the fluorescence, 400 µL of isopropanol was added to each well, and the plates were incubated at room temperature for 20 min with continuous shaking. Subsequently, 200 µL aliquots were analyzed using a SpectraMax M2e Microplate Reader (Molecular Devices) at wavelengths of 520-570 nm, as previously described previously.

For series [2], the system named is C57BL/6J mice. The series can be described thus: Safety assessment in normal C57BL/6J mice. The class given is in vivo, mouse. Particulars: 20 mg/kg/day i.p., 4 weeks, male C57BL/6J.
The subject of series [3] is Syrian golden hamsters. In words: High cholesterol diet-fed Syrian golden hamsters. Type of series: in vivo, hamster. Here is the method: Syrian golden hamsters were purchased from Vital River Laboratories (Beijing, China). Hamsters were fed a high cholesterol diet and received ISOGK (5 mg/kg/day) for 4 weeks. Before being sacrificed, liver and blood samples were collected at the end of the experiment. The animal study protocol was approved by the Ethics Committee of Hefei University of Technology (approval number HFUT20221031001) and conducted in accordance with the guidelines set forth in the "Guide for the Care and Use of Laboratory Animals," published by the National Institutes of Health (NIH).
Plasma levels of TC, TG, LDL-C, and high-density lipoprotein cholesterol (HDL-C) were determined following the manufacturer's instructions. Liver tissues (30-40 mg) were homogenized in 0.5 mL of cold PBS for hepatic TG and cholesterol measurement. A 0.4 mL homogenate was combined with 1.4 mL of a CHCl3/CH3OH mixture (2:1, v/v) and shaken overnight at room temperature. Following centrifugation at 2,500 × g for a period of 10 min, the organic phase was meticulously transferred and permitted to air-dry. The residual organic material was then reconstituted in 800 μL of ethanol containing 1% Triton X-100, whereby the ethanol served to solubilize the material.
Fast protein liquid chromatography (FPLC) was employed to analyze plasma lipoproteins using 200 μL of pooled plasma samples. The samples were initially filtered through 0.22-µm filters and subsequently loaded onto Tricorn high-performance Superose S-6 10/300GL columns (Amersham Biosciences). Elution was conducted with PBS at a constant flow rate of 0.25 mL/min. The eluted fractions (500 μL each) were subjected to analysis for TG and TC concentrations using the aforementioned commercial assay kits.

In series [4] the test system is AMPK. The series can be described thus: Western blot of p-AMPK in AML12 and HepG2 cells. Type of series: cell-based. The settings on record: 5 µM, 12 h after 50 µM palmitic acid. Here is the method: Western blotting was performed as previously described. In brief, whole-cell lysates from cultured cells and animal tissue were prepared using 1× sample buffer, followed by boiling at 95 °C for 10 min. Subsequently, SDS-PAGE was employed to separate the samples, which were then transferred onto a nitrocellulose membrane (Pall, NY, USA). Subsequently, the membrane was incubated in a blocking buffer for one h at room temperature. Following the removal of the blocking buffer, the blots were incubated with primary antibodies (1:1,000 dilution) at 4 °C overnight. The membrane was washed thrice for 10 min each, using 1× Tris-buffered saline with 0.1% Tween-20 (TBST). Subsequently, the membranes were incubated with IRDye® 680RD Goat anti-Mouse IgG (H + L) or IRDye® 800CW Goat anti-Rabbit IgG (H + L) (1:10,000 dilution, LI-COR, Lincoln, Nebraska, USA) at room temperature for 1 h. Visualization of the blots was carried out using the Li-COR CLx infrared imaging system. GAPDH (60004-1-Ig, Proteintech, Chicago, IL, USA), ACLY (67166-1-Ig, Proteintech, Chicago, IL, USA), LDLR (10785-1-AP, Proteintech, Chicago, IL, USA), β-Actin (66009-1-Ig, Proteintech, Chicago, IL, USA), AMPK (10929-2-AP, Proteintech, Chicago, IL, USA), p-AMPK^T172 (2535, Cell Signaling Technology, Danvers, MA, USA).

Setting [5] is: hamsters, 5 mg/kg/day i.p., 4 weeks.

Regarding `COc1ccc(-c2cc(=O)c3c(O)cc(O)c(-c4cc(-c5cc(=O)c6c(O)cc(O)cc6o5)ccc4OC)c3o2)cc1` [ISOGK, Isoginkgetin], the DiI-LDL uptake entry in series [1] is “no significant effect on LDL uptake”. Besides, in series [2], the “H&E staining of heart, liver, spleen, lungs, kidneys” value is “no histological differences”; the “PAS staining of kidney tissues” value is listed as “no significant difference in glycogen deposits”; the “body weight vs vehicle” value is recorded as “no statistically significant differences”; the “fasting blood glucose (FBG) vs vehicle” value is on record as “no statistically significant differences”. In series [2], the “lactate dehydrogenase (LDH)” value is reported as “no variation”; the “ratio of liver weight to body weight” value is given as “no significant change”; the “serum ALT, AST, ALP, BUN, CREA, CK, CK-MB vs vehicle” value is “did not induce any significant difference”. In series [3] (setting [5]), the “decrease in hepatic TC” value is on record as 27.53%, the “decrease in hepatic TG” value amounted to 64.14%, the “reduction in serum LDL-C” value is 56.55% and the “reduction in serum TC” value amounted to 36.12%. In series [3] (setting [5]), the “reduction in serum TG” value came out at 46.87%. In series [3] (hamsters, 4 weeks), the “lipid deposition in liver (Oil Red O)” value is reported as “significantly reduced lipid deposition” and the “serum antioxidant indicators (MDA, SOD, ox-LDL)” value was “remained unaltered”. Besides, the “serum TC and TG distribution (FPLC)” value in series [3] (hamsters, pooled plasma) is “significant decrease in serum TC and TG distribution”. Also, the “serum ALT and AST vs vehicle” value in series [3] (high cholesterol diet-fed hamsters, 5 mg/kg/day i.p., 4 weeks) is listed as “no significant difference”. The “LDLR and ACLY protein levels in the liver” value in series [3] (hyperlipidemic hamsters, 5 mg/kg/day, 4 weeks) is given as “no significant difference”. Also, the p-AMPK protein expression result in series [4] is “activate AMPK”.

The values are drawn from publication PMC11984407, “A natural small molecule isoginkgetin alleviates hypercholesterolemia and atherosclerosis by targeting ACLY” (Theranostics, 2025).
